Experimental data from US8420823B2, “Long-chain fatty acyl elongase inhibitor comprising arylsulfonyl derivative as active ingredient” (MSD K.K., priority 2008, dated 2013).
Where a name gives a salt, the structure may show the parent alone.

Target: T1, human LCE (Homo sapiens, UniProt Q9H5J4)
T1 sequence (Q9H5J4 1-265): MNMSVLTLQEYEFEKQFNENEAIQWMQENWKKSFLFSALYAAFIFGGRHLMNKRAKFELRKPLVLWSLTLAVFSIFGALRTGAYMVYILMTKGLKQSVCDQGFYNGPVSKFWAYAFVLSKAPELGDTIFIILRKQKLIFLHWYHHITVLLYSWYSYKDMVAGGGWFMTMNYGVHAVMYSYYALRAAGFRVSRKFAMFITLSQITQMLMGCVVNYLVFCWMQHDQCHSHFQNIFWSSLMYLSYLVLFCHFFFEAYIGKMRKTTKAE
Assay: LCE enzyme activity-inhibitory test
Assay type: biochemical
Details: [14C]-malonyl CoA / palmitoyl CoA substrate, 37° C., 90 minutes
Description: Pharmacological Test Example 1 (LCE Enzyme Activity-inhibitory Test)
A test compound was dissolved in dimethyl sulfoxide (DMSO to be 10 mM), and then diluted with DMSO to prepare a 1000-fold concentrated solution of the test concentration. An improved Moon et al's method (J. Biol. Chem., Vol. 276, pp. 45358-45366, 2001) was employed for the LCE enzyme activity-inhibitor test. Concretely, the diluted compound was applied to a 96-well assay plate (Corning, 96-well assay block) in an amount of 1.0 μL/well; 50 μL of a phosphate buffer solution (100 mM potassium phosphate buffer, pH 6.5), and 25 μL of a substrate solution (100 mM potassium phosphate buffer (pH 6.5), 4.0 μM rotenone, 80 μM fatty acid-free bovine serum albumin, 160 μM palmitoyl CoA, 80 μM malonyl CoA, 3.5 μM [^14C]-malonyl CoA (1.92 GBq/mmol, by Amersham)) were added to each well; 25 μL of an enzyme solution (100 mM potassium phosphate buffer (pH 6.5), 100 μg/mL human LCE) was added thereto; the top of the plate was airtightly sealed up; and this was incubated with gently shaking and stirring at 37° C. for 90 minutes. Next, 100 μL of 5 M hydrochloric acid was added to each well, and the assay plate was stirred at room temperature for 5 minutes to stop the enzyme reaction with hydrolyzing the acyl CoA. Next, the enzyme reaction solution in each well was adsorbed by each well of a 96-well GF/C filter plate (Perkin Elmer Unifilter 96 GF/C); the individual wells were washed with water to remove the non-adsorbed malonyl CoA; and the GF/C filter plate was dried at 50° C. for 60 minutes. Next, 30 μL of a scintillator (Perkin Elmer Microscinti 0) was added to each well; then the top of the plate was sealed up; and the fixed [^14C] radioactivity was measured with a microplate scintillation counter (Perkin Elmer TopCount) to be the enzyme activity. The human LCE enzyme-inhibitory activity of the test compound was calculated, based on the radioactivity of the DMSO-added well with no test compound therein as a control.

IC50 | Compound
1100 nM | CNC(=O)C1CCCN(S(=O)(=O)c2cccc(C(=O)Nc3ncccc3OC)c2)C1 (centres unmarked) [Example 60, 1-[(3-{[(3-methoxypyridin-2-yl)amino]carbonyl}phenyl)sulfonyl]-N-methylpiperidine-3-carboxamide]
54 nM | COc1cccnc1NC(=O)c1cccc(S(=O)(=O)N2CCCC(C(=O)NCc3ccccc3)C2)c1 (centres unmarked) [Example 61, N-benzyl-1-[(3-{[(3-methoxypyridin-2-yl)amino]carbonyl}phenyl)sulfonyl]piperidine-3-carboxamide]
93 nM | COc1cccnc1NC(=O)c1cccc(S(=O)(=O)N2CCCC(C(=O)OCc3ccccc3)C2)c1 (centres unmarked) [Example 62, Benzyl 1-[(3-{[(3-methoxypyridin-2-yl)amino]carbonyl}phenyl)sulfonyl]piperidine-3-carboxylate]
18 nM | CC(C)Oc1cc(NC(=O)c2cccc(S(=O)(=O)N3CCOCC3)c2)[nH]n1 [Example 63, 3-Isopropoxy-5-{[3-(morpholin-4-ylsulfonyl)benzoyl]amino}-1H-pyrazole hydrochloride]
5 nM | CC(C)Oc1cc(NC(=O)c2cccc(S(=O)(=O)N3CCCC3C)c2)[nH]n1 (centres unmarked) [Example 64, 3-Isopropoxy-5-({3-[(2-methylpyrrolidin-1-yl)sulfonyl]benzoyl}amino)-1H-pyrazole hydrochloride]
5.9 nM | CC(C)Oc1cc(NC(=O)c2cccc(S(=O)(=O)N3CCCC(CO)C3)c2)[nH]n1 (centres unmarked) [Example 65, 5-[(3-{[3-(hydroxymethyl)piperidin-1-yl]sulfonyl}benzoyl)amino]-3-isopropoxy-1H-pyrazole hydrochloride]
28 nM | CC(C)Oc1cc(NC(=O)c2cccc(S(=O)(=O)N3CCCC(O)C3)c2)[nH]n1 (centres unmarked) [Example 66, 5-({3-[(3-Hydroxypiperidin-1-yl)sulfonyl}benzoyl]amino)-3-isopropoxy-1H-pyrazole hydrochloride]
10 nM | CC(C)Oc1cc(NC(=O)c2cccc(S(=O)(=O)N3CCC(F)CC3)c2)[nH]n1 [Example 67, 5-({3-[(4-fluoropiperidin-1-yl)sulfonyl]benzoyl}amino)-3-isopropoxy-1H-pyrazole hydrochloride]
13 nM | CC(C)Oc1cc(NC(=O)c2cccc(S(=O)(=O)N3CCC(F)(F)CC3)c2)[nH]n1 [Example 68, 5-({3-[(4,4-difluoropiperidin-1-yl)sulfonyl]benzoyl}amino)-3-isopropoxy-1H-pyrazole hydrochloride]
2.3 nM | CC(C)Oc1cc(NC(=O)c2cccc(S(=O)(=O)N3CCCCC3)c2)[nH]n1 [Example 69, 3-Isopropoxy-5-{[3-(piperidin-1-ylsulfonyl)benzoyl}amino]-1H-pyrazole hydrochloride]
6.8 nM | CC(C)Oc1cc(NC(=O)c2cccc(S(=O)(=O)N3CCCC3)c2)[nH]n1 [Example 70, N-(3-isopropoxy-1H-pyrazol-5-yl)-3-(pyrrolidin-1-ylsulfonyl)benzamide hydrochloride]
14000 nM | O=C(Nc1ccc(F)cc1)c1cccc(S(=O)(=O)N2CCCCC2)c1 [Example 71, N-(4-fluorophenyl)-3-(piperidin-1-ylsulfonyl)benzamide]
1200 nM | O=C(Nc1ccc(C(F)(F)F)cc1)c1cccc(S(=O)(=O)N2CCCCC2)c1 [Example 72, 3-(Piperidin-1-ylsulfonyl)-N-[4-(trifluoromethyl)phenyl]benzamide]
5500 nM | O=C(NCc1ccccc1)c1cccc(S(=O)(=O)N2CCCCC2)c1 [Example 73, N-benzyl-3-(piperidin-1-ylsulfonyl)benzamide]
34 nM | CC(C)c1ccc(NC(=O)c2cccc(S(=O)(=O)N3CCCCC3)c2)cc1 [Example 77, N-(4-isopropylphenyl)-3-(piperidin-1-ylsulfonyl)benzamide]
7900 nM | O=C(NCCc1ccccc1)c1cccc(S(=O)(=O)N2CCCCC2)c1 [Example 78, N-(2-phenylethyl)-3-(piperidin-1-ylsulfonyl)benzamide]
2200 nM | CSc1ccc(NC(=O)c2cccc(S(=O)(=O)N3CCCCC3)c2)cc1 [Example 79, N-[4-(methylthio)phenyl]-3-(piperidin-1-ylsulfonyl)benzamide]
1900 nM | COc1cccc(NC(=O)c2cccc(S(=O)(=O)N3CCCCC3)c2)c1 [Example 81, N-(3-methoxyphenyl)-3-(piperidin-1-ylsulfonyl)benzamide]

IC50 | Compound
7300 nM | O=C(Nc1ccon1)c1cccc(S(=O)(=O)N2CCCCC2)c1 [Example 82, N-isoxazol-3-yl-3-(piperidin-1-ylsulfonyl)benzamide]
5000 nM | O=C(N[C@H]1CCCc2ccccc21)c1cccc(S(=O)(=O)N2CCCCC2)c1 [Example 83, 3-(Piperidin-1-ylsulfonyl)-N-[(1S)-1,2,3,4-tetrahydronaphthalen-1-yl]benzamide]
2600 nM | Cc1ccc(NC(=O)c2cccc(S(=O)(=O)N3CCCCC3)c2)cc1 [Example 84, N-(4-methylphenyl)-3-(piperidin-1-ylsulfonyl)benzamide]
6000 nM | O=C(NC1CCc2ccccc21)c1cccc(S(=O)(=O)N2CCCCC2)c1 (centres unmarked) [Example 85, N-(2,3-dihydro-1H-inden-1-yl)-3-(piperidin-1-ylsulfonyl)benzamide]
3000 nM | O=C(NCCCc1ccccc1)c1cccc(S(=O)(=O)N2CCCCC2)c1 [Example 86, N-(3-phenylpropyl)-3-(piperidin-1-ylsulfonyl)benzamide]
210 nM | O=C(Nc1ccc(Oc2ccccc2)cc1)c1cccc(S(=O)(=O)N2CCCCC2)c1 [Example 87, N-(4-phenoxyphenyl)-3-(piperidin-1-ylsulfonyl)benzamide]
2200 nM | O=C(Nc1ccccc1)c1cccc(S(=O)(=O)N2CCCCC2)c1 [Example 88, N-phenyl-3-(piperidin-1-ylsulfonyl)benzamide]
1500 nM | O=C(Nc1ccccc1Cl)c1cccc(S(=O)(=O)N2CCCCC2)c1 [Example 89, N-(2-chlorophenyl)-3-(piperidin-1-ylsulfonyl)benzamide]
9600 nM | O=C(Nc1cccc(Cl)c1)c1cccc(S(=O)(=O)N2CCCCC2)c1 [Example 90, N-(3-chlorophenyl)-3-(piperidin-1-ylsulfonyl)benzamide]
31 nM | CC(C)Oc1ccc(NC(=O)c2cccc(S(=O)(=O)N3CCCCC3)c2)cc1 [Example 91, N-(4-isopropoxyphenyl)-3-(piperidin-1-ylsulfonyl)benzamide]
9100 nM | CC(=O)c1ccc(NC(=O)c2cccc(S(=O)(=O)N3CCCCC3)c2)cc1 [Example 92, N-(4-acetylphenyl)-3-(piperidin-1-ylsulfonyl)benzamide]
1300 nM | CC(O)c1ccc(NC(=O)c2cccc(S(=O)(=O)N3CCCCC3)c2)cc1 (centres unmarked) [Example 93, N-[4-(1-hydroxyethyl)phenyl]-3-(piperidin-1-ylsulfonyl)benzamide]
5100 nM | CC(C)(O)c1ccc(NC(=O)c2cccc(S(=O)(=O)N3CCCCC3)c2)cc1 [Example 94, N-[4-(1-hydroxy-1-methylethyl)phenyl]-3-(piperidin-1-ylsulfonyl)benzamide]
320 nM | COc1ccc(NC(=O)c2cccc(S(=O)(=O)N3CCCCC3)c2)c(OC)n1 [Example 96, N-(2,6-dimethoxypyridin-3-yl)-3-(piperidin-1-ylsulfonyl)benzamide]
2500 nM | COc1ncccc1NC(=O)c1cccc(S(=O)(=O)N2CCCCC2)c1 [Example 97, N-(2-methoxypyridin-3-yl)-3-(piperidin-1-ylsulfonyl)benzamide]
260 nM | O=C(Nc1ncccc1O)c1cccc(S(=O)(=O)N2CCCCC2)c1 [Example 98, N-(3-hydroxypyridin-2-yl)-3-(piperidin-1-ylsulfonyl)benzamide]
36 nM | COc1cccnc1NC(=O)c1cccc(S(=O)(=O)N2CCCCC2)c1 [Example 99, N-(3-methoxypyridin-2-yl)-3-(piperidin-1-ylsulfonyl)benzamide]

Compound | IC50
O=C(Nc1ccccn1)c1cccc(S(=O)(=O)N2CCCCC2)c1 [Example 74, 2-{[3-(Piperidin-1-ylsulfonyl)benzoyl}amino]pyridine trifluoroacetate] | 4900 nM
O=C(Nc1cccc2cnccc12)c1cccc(S(=O)(=O)N2CCCCC2)c1 [Example 76, 5-{[3-(piperidin-1-ylsulfonyl)benzoyl]amino}isoquinoline trifluoroacetate] | 2600 nM
COc1ccccc1NC(=O)c1cccc(S(=O)(=O)N2CCCCC2)c1 [Example 80, N-(2-methoxyphenyl)-3-(piperidin-1-ylsulfonyl)benzamide] | 44 nM
